# Assay results published in patent US9833497B2, “Human originated EGF domain proteins and use of the same” (CHENGDU SOURCEBIO LIMITED-LIABILITY COMPANY, priority 2013, dated 2017).
# Experiments:
# Type in all cases: cell-based
# E. coli DH5α = test: Antibacterial activity: MIC and growth curve against E. coli DH5α in 96-well plate; conditions: minimal inhibitory concentration against E. coli DH5α; 96-well plate, 5×10^5 CFU/mL, 37° C., judged after 8 h
# In short: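 Log-phase DH5α (OD600 about 0.5, 37° C, 185 rpm in LB) was pelleted, resuspended in fresh LB and seeded at 5×10^5 CFU/mL with recombinant protein at 50, 25 and 12.5 μg/mL (two-fold series), in triplicate. Plates were shaken at 175 rpm, 37° C, and OD600 was read every 30 min. MIC was the lowest concentration with no growth.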
# E. coli BL21 = test: MIC against Gram-negative bacteria: E. coli BL21; conditions: 5×10^5 CFU/mL
# In short: (§1)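 Inocula prepared by growing LB cultures at 37° C to 0.5 McFarland, centrifuging at 4000×g, and resuspending in fresh medium. Final density 5×10^5 CFU/mL per well with two-fold dilutions of purified EGF domain protein; shaking incubation at 37° C.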
# Pseudomonas aeruginosa = test: MIC against Gram-negative bacteria: Pseudomonas aeruginosa; conditions: 5×10^5 CFU/mL
# In short: as §1
# Klebsiella pneumonia = test: MIC against Gram-negative bacteria: Klebsiella pneumonia; conditions: 5×10^5 CFU/mL
# In short: as §1
# Enterobacter cloacae = test: MIC against Gram-negative bacteria: Enterobacter cloacae; conditions: 5×10^5 CFU/mL
# In short: as §1
# Aeromonas hydrophila = test: MIC against Gram-negative bacteria: Aeromonas hydrophila; conditions: 5×10^5 CFU/mL
# In short: as §1
# Citrobacter diversus = test: MIC against Gram-negative bacteria: Citrobacter diversus; conditions: 5×10^5 CFU/mL
# In short: as §1
# Moraxella catarrhalis = test: MIC against Gram-negative bacteria: Moraxella catarrhalis; conditions: 5×10^5 CFU/mL
# In short: as §1
# Proteus mirabilis = test: MIC against Gram-negative bacteria: Proteus mirabilis; conditions: 5×10^5 CFU/mL
# In short: as §1
# Proteus vulgaris = test: MIC against Gram-negative bacteria: Proteus vulgaris; conditions: 5×10^5 CFU/mL
# In short: as §1
# Serratia marcescens = test: MIC against Gram-negative bacteria: Serratia marcescens; conditions: 5×10^5 CFU/mL
# In short: as §1
# [1] = E. coli BL21, 10 h cultivation at 37° C.
# [2] = Pseudomonas aeruginosa, 10 h cultivation at 37° C.
# [3] = Klebsiella pneumonia, 10 h cultivation at 37° C.
# [4] = Enterobacter cloacae, 10 h cultivation at 37° C.
# [5] = Aeromonas hydrophila, 10 h cultivation at 37° C.
# [6] = Citrobacter diversus, 10 h cultivation at 37° C.
# [7] = Moraxella catarrhalis, 10 h cultivation at 37° C.
# [8] = Proteus mirabilis, 10 h cultivation at 37° C.
# [9] = Proteus vulgaris, 10 h cultivation at 37° C.
# [10] = Serratia marcescens, 10 h cultivation at 37° C.
substance,measurement,setting,value
PRT869 (CKCNLHATVCVYDNSKLTCECEHNTTGPDCGKCKKNYQGRPWSPGSYLPIPKGTANTCIP; listed as Homo sapiens),MIC,E. coli DH5α,12.5 µg/mL
same,MIC (μg/mL) E. coli BL21,E. coli BL21; [1],25 µg/mL
same,MIC (μg/mL) P. aeruginosa,"Pseudomonas aeruginosa; P. aeruginosa, 10 h cultivation at 37° C.",12.5 µg/mL
same,MIC (μg/mL) K. pneumonia,"Klebsiella pneumonia; K. pneumonia, 10 h cultivation at 37° C.",12.5 µg/mL
same,MIC (μg/mL) E. cloacae,"Enterobacter cloacae; E. cloacae, 10 h cultivation at 37° C.",12.5 µg/mL
same,MIC (μg/mL) A. hydrophila,"Aeromonas hydrophila; A. hydrophila, 10 h cultivation at 37° C.",12.5 µg/mL
same,MIC (μg/mL) C. diversus,"Citrobacter diversus; C. diversus, 10 h cultivation at 37° C.",12.5 µg/mL
same,MIC (μg/mL) M. catarrhalis,"Moraxella catarrhalis; M. catarrhalis, 10 h cultivation at 37° C.",12.5 µg/mL
same,MIC (μg/mL) P. mirabilis,"Proteus mirabilis; P. mirabilis, 10 h cultivation at 37° C.",12.5 µg/mL
same,MIC (μg/mL) P. vulgaris,"Proteus vulgaris; P. vulgaris, 10 h cultivation at 37° C.",12.5 µg/mL
same,MIC (μg/mL) S. marcescens,"Serratia marcescens; S. marcescens, 10 h cultivation at 37° C.",50 µg/mL
PRT1376 (ATRMCPADCRGRGRCVQGVCLCHVGYGGEDCG; listed as Homo sapiens),MIC,E. coli DH5α,50 µg/mL
same,MIC against E. coli BL21,E. coli BL21; [1],12.5 µg/mL
same,MIC against P. aeruginosa,Pseudomonas aeruginosa; [2],50 µg/mL
same,MIC against K. pneumonia,Klebsiella pneumonia; [3],12.5 µg/mL
same,MIC against E. cloacae,Enterobacter cloacae; [4],50 µg/mL
same,MIC against A. hydrophila,Aeromonas hydrophila; [5],12.5 µg/mL
same,MIC against C. diversus,Citrobacter diversus; [6],50 µg/mL
same,MIC against M. catarrhalis,Moraxella catarrhalis; [7],12.5 µg/mL
same,MIC against P. mirabilis,Proteus mirabilis; [8],50 µg/mL
same,MIC against P. vulgaris,Proteus vulgaris; [9],12.5 µg/mL
same,MIC against S. marcescens,Serratia marcescens; [10],25 µg/mL
PRT1436 (AERNCRNPELNPCSVNAQCIEERQGDVTCVCGVGWAGDGYICG; listed as Homo sapiens),MIC,E. coli DH5α,12.5 µg/mL
same,MIC against E. coli BL21,E. coli BL21; [1],12.5 µg/mL
same,MIC against P. aeruginosa,Pseudomonas aeruginosa; [2],12.5 µg/mL
same,MIC against K. pneumonia,Klebsiella pneumonia; [3],50 µg/mL
same,MIC against E. cloacae,Enterobacter cloacae; [4],12.5 µg/mL
same,MIC against A. hydrophila,Aeromonas hydrophila; [5],50 µg/mL
same,MIC against C. diversus,Citrobacter diversus; [6],25 µg/mL
same,MIC against M. catarrhalis,Moraxella catarrhalis; [7],25 µg/mL
same,MIC against P. mirabilis,Proteus mirabilis; [8],12.5 µg/mL
same,MIC against P. vulgaris,Proteus vulgaris; [9],25 µg/mL
same,MIC against S. marcescens,Serratia marcescens; [10],12.5 µg/mL
PRT591 (CACDPHNSLSPQCNQFTGQCPCREGFGGLMCSAAAIRQCPDRTYGDVATGCRA; listed as Homo sapiens),MIC,E. coli DH5α,25 µg/mL
same,MIC against E. coli BL21,"E. coli BL21; 96-well plate, 37° C., 10 h",50 µg/mL
same,MIC against P. aeruginosa,"Pseudomonas aeruginosa; 96-well plate, 37° C., 10 h",25 µg/mL
same,MIC against K. pneumonia,"Klebsiella pneumonia; 96-well plate, 37° C., 10 h",12.5 µg/mL
same,MIC against E. cloacae,"Enterobacter cloacae; 96-well plate, 37° C., 10 h",25 µg/mL
same,MIC against A. hydrophila,"Aeromonas hydrophila; 96-well plate, 37° C., 10 h",50 µg/mL
same,MIC against C. diversus,"Citrobacter diversus; 96-well plate, 37° C., 10 h",12.5 µg/mL
same,MIC against M. catarrhalis,"Moraxella catarrhalis; 96-well plate, 37° C., 10 h",50 µg/mL
same,MIC against P. mirabilis,"Proteus mirabilis; 96-well plate, 37° C., 10 h",12.5 µg/mL
same,MIC against P. vulgaris,"Proteus vulgaris; 96-well plate, 37° C., 10 h",50 µg/mL
same,MIC against S. marcescens,"Serratia marcescens; 96-well plate, 37° C., 10 h",12.5 µg/mL
PRT1333 (PIPECAALLCPENSRCSPSTEDENKLECKCLPNYRGDGKYCD; listed as Homo sapiens),MIC,E. coli DH5α,25 µg/mL
same,MIC against E. coli BL21,"E. coli BL21; E. coli BL21, 96-well plate, 37° C., 10 h",12.5 µg/mL
same,MIC against P. aeruginosa,"Pseudomonas aeruginosa; Pseudomonas aeruginosa, 96-well plate, 37° C., 10 h",25 µg/mL
same,MIC against K. pneumonia,"Klebsiella pneumonia; Klebsiella pneumonia, 96-well plate, 37° C., 10 h",25 µg/mL
same,MIC against E. cloacae,"Enterobacter cloacae; Enterobacter cloacae, 96-well plate, 37° C., 10 h",12.5 µg/mL
same,MIC against A. hydrophila,"Aeromonas hydrophila; Aeromonas hydrophila, 96-well plate, 37° C., 10 h",25 µg/mL
same,MIC against C. diversus,"Citrobacter diversus; Citrobacter diversus, 96-well plate, 37° C., 10 h",12.5 µg/mL
same,MIC against M. catarrhalis,"Moraxella catarrhalis; Moraxella catarrhalis, 96-well plate, 37° C., 10 h",25 µg/mL
same,MIC against P. mirabilis,"Proteus mirabilis; Proteus mirabilis, 96-well plate, 37° C., 10 h",12.5 µg/mL
same,MIC against P. vulgaris,"Proteus vulgaris; Proteus vulgaris, 96-well plate, 37° C., 10 h",25 µg/mL
same,MIC against S. marcescens,"Serratia marcescens; Serratia marcescens, 96-well plate, 37° C., 10 h",12.5 µg/mL
PRT531 (CDCNLEGVLPEICDAHGRCLCRPGVEGPRCDTCRSGFYSFPICQA; listed as Homo sapiens),MIC,E. coli DH5α,50 µg/mL
same,MIC against E. coli BL21,"E. coli BL21; 96-well plate, 37° C., 10 h",25 µg/mL
same,MIC against P. aeruginosa,"Pseudomonas aeruginosa; 96-well plate, 37° C., 10 h",12.5 µg/mL
same,MIC against K. pneumonia,"Klebsiella pneumonia; 96-well plate, 37° C., 10 h",25 µg/mL
same,MIC against E. cloacae,"Enterobacter cloacae; 96-well plate, 37° C., 10 h",50 µg/mL
same,MIC against A. hydrophila,"Aeromonas hydrophila; 96-well plate, 37° C., 10 h",12.5 µg/mL
same,MIC against C. diversus,"Citrobacter diversus; 96-well plate, 37° C., 10 h",50 µg/mL
same,MIC against M. catarrhalis,"Moraxella catarrhalis; 96-well plate, 37° C., 10 h",12.5 µg/mL
same,MIC against P. mirabilis,"Proteus mirabilis; 96-well plate, 37° C., 10 h",50 µg/mL
same,MIC against P. vulgaris,"Proteus vulgaris; 96-well plate, 37° C., 10 h",12.5 µg/mL
same,MIC against S. marcescens,"Serratia marcescens; 96-well plate, 37° C., 10 h",50 µg/mL
